Reference: patent US20260315434A1, “USE OF GUAIACOL SESQUITERPENE LACTONE DERIVATIVES” (NANJING UNIVERSITY OF CHINESE MEDICINE, priority 2023, published 2026)
Values after ≈ are worked out from the molar mass of the structure shown. Like-named read-outs stand apart in the source and are kept apart here.

How the values were obtained:
[1] = Water solubility testing of compounds (HPLC); conditions: deionized water, 37 °C
T cells / MDSCs = assay: Promotion of T cell proliferation in a co-culture model of MDSCs and T cells; type: cell-based, mouse; conditions: for activation at 1 µM: Mus musculus, T-cell, 12 h, read-out: T-cell proliferation rate (%), 1 μM, MDSCs treated 12 hours, co-culture of MDSCs and T cells, compared to the control group; for T-cell proliferation rate (%): 1 μM, MDSCs treated 12 hours, co-culture of MDSCs and T cells, compared to the control group
Method: Under sterile conditions, the tibia was removed, both ends of the bone were cut, and bone marrow was repeatedly flushed into a 15 mL centrifuge tube using a 1 mL syringe filled with culture medium. Centrifuge at 1600 rpm for 5 min to collect bone marrow cells. […] The spleen cell suspension was then transferred into a 15 mL centrifuge tube. Centrifuge at 1600 rpm for 5 min to collect T cells. Wash twice with 1×PBS. Resuspend the centrifuged T cells in 1 mL PBS and add 1 mL of 10 μM CFDA-SE solution. Incubate at room temperature for 8 min. […] After drug administration, collect MDSC cells into centrifuge tubes. Centrifuge at 1600 rpm for 5 min, remove supernatant, resuspend in 1 mL fresh medium, and plate. Add 1 mL stimulated activated T cells (1:1 ratio) for 48 h co-culture. After incubation, collect cells into centrifuge tubes, wash twice with PBS, and incubate with Fc antibody at room temperature in the dark for 10 min. Add CD3-labeled flow cytometry antibody and incubate at 4° C. in the dark for 30 min. After incubation, wash cells with PBS, resuspend in 300 μL PBS, and analyze by flow cytometry.

[2] = Conversion (release) of prodrug salts to parent compound in HEPES buffer pH 7.4; type: in vitro ADME; conditions: for degraded at 1 h / degraded at 2 h / degraded at 4 h / degraded at 8 h / degraded at 12 h: hepes buffer, pH 7.4, HEPES pH 7.4, 37 °C; for Release rate (conversion to Compound 83): HEPES pH 7.4, 37 °C
Method: (§1) Pharmaceutically acceptable salts of guaiane-type sesquiterpene lactone derivatives were selected and evaluated for their conversion rates to Compound 1 and Compound 83 in plasma and HEPES buffer, with results shown in Tables 2-1, 2-2, 3-1, and 3-2.
Experimental Method: Preparation of HEPES 7.4 Solution: Dissolve 1.6 g NaCl, 0.074 g KCl, 0.027 g Na2HPO4, 0.2 g glucose, and 1 g 4-(2-Hydroxyethyl)piperazine-1-ethanesulfonic acid (HEPES) solution in 90 mL distilled water. Adjust the pH to 7.4 using 0.5 M NaOH, then dilute to a final volume 100 mL with distilled water.
(§2) Sample Analysis: Dissolve 0.6 mg of the compound in 250 μL of deionized water separately. Add 250 μL of mouse serum or HEPES 7.4 solution to the sample, incubate at a constant temperature of 37° C., and collect samples at different time points. Pipette 20 μL of the sample to an EP tube, add 60 μL of methanol, vortex to mix thoroughly, and centrifuge at 12,000 rpm at 4° C. for 10 min. At 1 h, 2 h, 4 h, 8 h, and 12 h respectively, collect the supernatant for HPLC analysis. Inject 10 μL of sample and record the corresponding peak areas. Chromatographic conditions: Hanbang C18 column (4.6×250 mm, 5 μm); mobile phase: acetonitrile: […] ammonium formate solution=60:40; flow rate 1.0 mL/min; detection wavelength 210 nm; column temperature 30° C.

[3] = Conversion (release) of prodrug salts to parent compound in mouse plasma; type: in vitro ADME; conditions: 37 °C; for metabolised at 1 h / metabolised at 2 h / metabolised at 4 h / metabolised at 8 h / metabolised at 12 h: mouse, plasma
Method: as §1
Plasma Preparation: Collect mouse plasma into an EP tube pre-loaded with sodium heparin, centrifuge at 8000 rpm for 10 minutes at 4° C., and then collect the supernatant.
as §2

[4] = 1 h, read-out: Release rate (conversion to Compound 1)
[5] = 2 h, read-out: Release rate (conversion to Compound 1)
[6] = 4 h, read-out: Release rate (conversion to Compound 1)
[7] = 8 h, read-out: Release rate (conversion to Compound 1)
[8] = 12 h, read-out: Release rate (conversion to Compound 1)
[9] = 1 h, read-out: Release rate (conversion to Compound 83)
[10] = 2 h, read-out: Release rate (conversion to Compound 83)
[11] = 4 h, read-out: Release rate (conversion to Compound 83)
[12] = 8 h, read-out: Release rate (conversion to Compound 83)
[13] = 12 h, read-out: Release rate (conversion to Compound 83)

Structure (SMILES) | Water-solubility [1] | activation at 1 µM (T cells / MDSCs) | degraded at 1 h [2, 4] | degraded at 2 h [2, 5] | degraded at 4 h [2, 6] | degraded at 8 h [2, 7] | degraded at 12 h [2, 8] | T-cell proliferation rate (%) (T cells / MDSCs) | metabolised at 1 h [3, 4] | metabolised at 2 h [3, 5] | metabolised at 4 h [3, 6] | metabolised at 8 h [3, 7] | metabolised at 12 h [3, 8] | also measured
C[C@@]12CC[C@@H]3[C@H](OC(=O)[C@H]3CN3CCCC3)[C@@H]3[C@]1(CC[C@@]3(C)O)C2 [Compound 3] | 1.305 mg/mL | 20 to 40% | – | – | – | – | – | – | – | – | – | – | – | –
C[C@@]12CC[C@@H]3[C@H](OC(=O)[C@H]3CN3CCCCC3)[C@@H]3[C@]1(CC[C@@]3(C)O)C2 [Compound 5] | 0.730 mg/mL | 20 to 40% | – | – | – | – | – | – | – | – | – | – | – | –
C[C@@]12CC[C@@H]3[C@H](OC(=O)[C@H]3CN3CCOCC3)[C@@H]3[C@]1(CC[C@@]3(C)O)C2 [Compound 6] | 0.668 mg/mL | 0 to 20% | – | – | – | – | – | – | – | – | – | – | – | –
CCOC(=O)[C@@H]1CCCN1C[C@@H]1C(=O)O[C@H]2[C@H]1CC[C@@]1(C)C[C@]13CC[C@@](C)(O)[C@H]23 [Compound 23] | 362.3 mg/mL | – | 6.2% | 14.3% | 26.8% | 41.1% | 52.8% | + (T-cell proliferation rate within the 0-20% range compared to the control group) | 7.2% | 14.3% | 26.8% | 45.1% | 52.8% | –
C[C@@]12CC[C@@H]3[C@H](OC(=O)[C@H]3CN3CCC(N4CCCCC4)CC3)[C@@H]3[C@]1(CC[C@@]3(C)O)C2 [Compound 35] | 212.6 mg/mL | – | 6.8% | 14.6% | 26.4% | 43.8% | 52.5% | – | 6.8% | 13.6% | 26.4% | 44.8% | 52.5% | –
C[C@@]12CC[C@@H]3[C@H](OC(=O)[C@H]3CN3CCC(N4CCOCC4)CC3)[C@@H]3[C@]1(CC[C@@]3(C)O)C2 [Compound 36] | 234.6 mg/mL | – | 6.9% | 14.8% | 26% | 43.6% | 52.4% | – | 6.6% | 14.8% | 26% | 43.6% | 52.1% | –
C[C@@]12CC[C@@H]3[C@H](OC(=O)[C@H]3CN3CCC4(CC3)CC4)[C@@H]3[C@]1(CC[C@@]3(C)O)C2 [Compound 37] | 357.5 mg/mL | – | 7.2% | 16.8% | 28.3% | 44.1% | 65.8% | – | 8.2% | 17.8% | 29.3% | 48.1% | 67.8% | –
C[C@@]12CC[C@@H]3[C@H](OC(=O)[C@H]3CN3CCCCCCC3)[C@@H]3[C@]1(CC[C@@]3(C)O)C2 [Compound 38] | 250.9 mg/mL | – | 6.9% | 14.8% | 25.4% | 41.4% | 50.7% | – | 6.1% | 14.5% | 25.4% | 41.4% | 49.7% | –
CC1=C2CC[C@@](C)(OC(=O)N3CCCCC3)[C@@H]2[C@H]2OC(=O)[C@@H](CN3CCCC3)[C@@H]2CC1 [Compound 100] | – | – | – | – | – | – | – | + (T-cell proliferation rate within the 0-20% range compared to the control group) | – | – | – | – | – | solubility ([1]; water, Water-solubility): 145 mg/mL (≈ 336 mM); degraded at 1 h [2, 9]: 6.5%; degraded at 2 h [2, 10]: 14%; degraded at 4 h [2, 11]: 26.4%; degraded at 8 h [2, 12]: 45.2%; degraded at 12 h [2, 13]: 51.4%; metabolised at 1 h [3, 9]: 6.6%; metabolised at 2 h [3, 10]: 13.8%; metabolised at 4 h [3, 11]: 25.6%; metabolised at 8 h [3, 12]: 43.2%; metabolised at 12 h [3, 13]: 53%
CC1=C2CC[C@@](C)(OC(=O)N3CCCCC3)[C@@H]2[C@H]2OC(=O)[C@@H](CN3CCCC3)[C@@H]2CC1 [Compound 101] | 108.0 mg/mL | – | – | – | – | – | – | + (T-cell proliferation rate within the 0-20% range compared to the control group) | – | – | – | – | – | Release rate (conversion to Compound 83) ([2]; 1 h, 60 min): 7.0%; Release rate (conversion to Compound 83) ([2]; 2 h, 120 min): 16.0%; Release rate (conversion to Compound 83) ([2]; 4 h, 240 min): 28.2%; Release rate (conversion to Compound 83) ([2]; 8 h, 480 min): 46.4%; Release rate (conversion to Compound 83) ([2]; 12 h, 720 min): 53.6%; Release rate (conversion to Compound 83) ([3]; 1 h, 60 min): 7.6%; Release rate (conversion to Compound 83) ([3]; 2 h, 120 min): 16.6%; Release rate (conversion to Compound 83) ([3]; 4 h, 240 min): 27.4%; Release rate (conversion to Compound 83) ([3]; 8 h, 480 min): 46.0%; Release rate (conversion to Compound 83) ([3]; 12 h, 720 min): 54.2%
